Tested on: Primary canine bronchial epithelia (CBE)
Assay: Gravimetric measurement of surface liquid volume on primary bronchial epithelial cultures at air-liquid interface (Assay #4)
Type: cell-based
Experimental: 4. Durability of Novel ENaC Blockers with or without Osmolytes on Airway Surface Liquid on an in vitro Cell Culture Model.
Using a gravimetric (weighing) procedure, the luminal surface liquid (mass/volume) on primary bronchial epithelial cultures grown at an air/liquid interface on permeable membrane supports (Corning) are measured, and changes in luminal surface liquid volume are recorded for up to 8 h. An applied starting volume of buffer (Krebs-Henseleit Bicarbonate Buffer Solution) with and without equimolar concentrations (0.1-100 μM) of selected novel or commercially available sodium channel blockers with or without osmolytes are added and at which point the experiment is started. The permeable supports are then reweighted at select time points and the mass/volume recorded. The data is then analyzed determining the changes in surface liquid mass/volume form beginning to the end of the 8 hour time frame.
To measure the effects of novel sodium channel blockers with or without osmotically active agents on surface liquid volume on airway surface liquid an in vitro cell culture model was used as described above, Assay #4. The effects of an ionic osmolyte, 1.5% NaCl (hypertonic saline), with or without 10 μM of compound 1 before and after adding 1.5% NaCl and compared it to isotonic buffer (vehicle) (FIG. 1) on surface liquid volume was measured over 8 hours. Using the same method (Assay #4) the effects of a non-ionic osmolyte mannitol at 4.2 and 8.4 mg/mL were compared to compound 1 and isotonic buffer (vehicle) (FIG. 2), and also by combining mannitol (4.2 and 8.4 mg/mL) with compound 1 at 1 and 10 μM (FIG. 3) on surface liquid volume was measured. The effects of compound 2 with an ionic osmolyte, 1.5% NaCl (hypertonic saline), was compared to compound 1 and hypertonic saline (1.5% NaCl), compound 1 in isotonic buffer, compound 2 in isotonic buffer, 1.5% NaCl, and isotonic buffer (vehicle) (FIG. 4) on changes in surface liquid over 8 hours. […]

## N=C(NCCCCc1ccc(OCC(O)CO)cc1)NC(=O)c1nc(Cl)c(N)nc1N (stereo not drawn) [Compound 1]
Compound 1 (10 μM) with pre or post administration of 1.5% NaCl solution, maintained for 8 hours, n=12
  volume expansion: 132+13%
Compound 1 alone at 10 μM, for over 8 hours
  inhibition of volume depletion (surface liquid volume): 74.7 ± 8.7%
Hypertonic saline (1.5% NaCl) combined with Compound 1 (10 μM)
  duration of the increase in ASL volume: over 8 h
